The values that follow come from patent US9951052B2, “Inhibitors of the renal outer medullary potassium channel” (Merck Sharp & Dohme Corp., priority 2013, dated 2018).

Each structure is given as a SMILES string. Counter-ions that a name gives are not always drawn.

For this assay, the target named is T1, hROMK (hKir1.1) (Homo sapiens, UniProt P48048).
T1 construct: expressed in transfected cells
T1 sequence (P48048 1-391): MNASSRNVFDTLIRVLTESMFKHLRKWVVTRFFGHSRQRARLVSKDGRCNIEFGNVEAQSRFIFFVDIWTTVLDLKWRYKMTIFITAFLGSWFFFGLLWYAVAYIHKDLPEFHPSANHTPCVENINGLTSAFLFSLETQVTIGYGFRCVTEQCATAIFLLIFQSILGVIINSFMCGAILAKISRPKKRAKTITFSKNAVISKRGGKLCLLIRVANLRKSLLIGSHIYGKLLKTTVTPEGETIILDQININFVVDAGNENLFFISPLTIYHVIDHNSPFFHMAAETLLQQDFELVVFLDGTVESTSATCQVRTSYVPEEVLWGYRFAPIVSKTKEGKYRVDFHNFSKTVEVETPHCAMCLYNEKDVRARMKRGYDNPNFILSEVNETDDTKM
As to the kind of experiment: Thallium Flux Assay (ROMK channel functional thallium flux, FLIPR-Tetra). The class given is cell-based. The settings on record: HEK293 cells stably expressing hROMK (hKir1.1); 30 min incubation with compound; HCl salt run where final product was an HCl salt. How it is done:
The following Thallium Flux Assay was performed on each of the final product compounds in the Examples. When the final product of an Example was an HCl salt, the salt was run in the Assay.
Cell Culture Conditions—HEK293 cells stably expressing hROMK (hKir1.1) were grown at 37° C. in a 10% CO2 humidified incubator in complete growth media: Dulbecco's Modified Eagle Medium supplemented with non-essential amino acids, Penicillin/Streptomycin/Glutamine, G418 and FBS. At >80% confluency, aspirate the media from the flask and rinse with 10 mL Calcium/Magnesium-free PBS. Add 5 mL of 1× trypsin (prepared in Ca/Mg Free PBS) to T-225 flask and return flask to 37° C./CO2 incubator for 2-3 minutes. To dislodge the cell, gently bang the side of the flask with your hand. Triturate the cells completely and then transfer the cells to 25 mL complete media. Centrifuge at 1,500 rpm for 6 min followed by resuspension in complete growth media and determine cell concentration. For typical re-seeding, 4E6 cells/T-225 flask will attain >80% confluency in 4 days. Under ideal growth conditions and appropriate tissue culture practices, this cell line is stable for 40-45 passages.
FluxOR Kit Components (Invitrogen F10017)
• FluxOR™ Reagent (Component A) • FluxOR™ Assay Buffer (Component B)—10× Concentrate • PowerLoad™ Concentrate (Component C)—100× Concentrate • Probenecid (Component D)—Lyophilized sample is kept at −20° C. Water soluble, 100× after solubilization in 1 mL water. Store at 4° C. • FluxOR™ Chloride-free Buffer (Component E)—5× Concentrate • Potassium sulfate (K2SO4) Concentrate (Component F)—125 mM in water. Store at 4° C. • Thallium sulfate (T12SO4) Concentrate (Component G)—50 mM in water. Store at 4° C. • DMSO (dimethyl sulfoxide, Component H)—1 mL (100%) Reagent Preparation: FluxOR Working Solutions • 1000× FluxOR™ Reagent: Reconstitute a vial of component A in 100 μl DMSO; Mix well; Store 10 μl aliquots at −20° C. • 1× FluxOR™ Assay Buffer: Dilute Component B 10-fold with water; Adjust pH to 7.4 with Hepes/NaOH; Filter and store at 4° C. • Probenecid/Assay Buffer: 100 mL of 1× FluxOR™ Assay Buffer; 1 mL of reconstituted component D; Store at 4° C. • Loading Buffer (per microplate): 10 μl 1000× FluxOR™ Reagent; 100 μl component C; 10 mL Probenecid/Assay Buffer • Compound Buffer (per microplate): 20 mL Probenecid/Assay Buffer; 0.3 mM ouabain (10 mM ouabain in water can be stored in amber bottle/aluminum foil at room temperature); Test compound • 1× FluxOR™ Chloride-Free Buffer: Prepare 1× working solution in water. Can be stored at room temperature • Stimulant Buffer (prepared at 5× final concentration in 1× FluxOR™ Chloride-Free Buffer): 7.5 mM Thallium sulfate and 0.75 mM Potassium sulfate (to give a final assay concentration of 3 mM Thallium/0.3 mM Potassium). Store at 4° C. when not in use.
Assay protocol—The ROMK channel functional thallium flux assay is performed in 384 wells, using the FLIPR-Tetra instrument. HEK-hKir1.1 cells are seeded in Poly-D-Lysine microplates and kept in a 37° C.-10% CO2 incubator overnight. On the day of the experiment, the growth media is replaced with the FluxOR™ reagent loading buffer and incubated, protected from light, at ambient temperature (23-25° C.) for 90 min. The loading buffer is replaced with assay buffer±test compound followed by 30 min incubation at ambient temperature, where the Thallium/Potassium stimulant is added to the microplate.
• 1. Seed HEK-hKir1.1 cells (50 μl at 20,000 cells/well) in 384-well PDL coated Microplates • 2. Allow cells to adhere overnight in humidified 37° C./10% CO2 incubator • 3. Completely remove cell growth media from microplate and replace with 25 μl loading buffer • 4. Incubate Microplate at room temperature, protected from light, for 90 min • 5. Remove loading buffer and replace with 25 μl 1× Assay Buffer±test compound. • 6. Incubate microplate at room temperature, protected from light, for 30 min • 7. […]

The term IC50 denotes the concentration that gives 50% inhibition. Turning to `Cc1c(CCN2CCC(C(=O)Nc3ccc4c(c3)COC4=O)CC2)ccc2c1COC2=O` [Example 10, 1-(2-(4-methyl-1-oxo-1,3-dihydroisobenzofuran-5-yl)ethyl)-N-(1-oxo-1,3-dihydroisobenzofuran-5-yl)piperidine-4-carboxamide], the IC50 turned out to be 10 nM.
Next, `Cc1c(CCN2CCC(C(=O)Nc3ccc(C#N)nc3)CC2)ccc2c1COC2=O` [Example 4, N-(6-cyanopyridin-3-yl)-1-(2-(4-methyl-1-oxo-1,3-dihydroisobenzofuran-5-yl)ethyl)piperidine-4-carboxamide]: 210 nM.
With `N#Cc1cc(NC(=O)C2CCN(CCc3ccc4c(c3)COC4=O)CC2)ccc1F` [Example 17, N-(3-cyano-4-fluorophenyl)-1-(2-(1-oxo-1,3-dihydroisobenzofuran-5-yl)ethyl)piperidine-4-carboxamide], the IC50 amounted to 410 nM.
Consider `Cc1c([C@@H](O)CN2CCC(C(=O)Nc3cnoc3)CC2)ccc2c1COC2=O` [Example 27, (R)-1-(2-hydroxy-2-(4-methyl-1-oxo-1,3-dihydroisobenzofuran-5-yl)ethyl)-N-(isoxazol-4-yl)piperidine-4-carboxamide], for which the IC50 turned out to be 140 nM.
Consider `Cc1c([C@@H](O)CN2CCC(N)(C(=O)Nc3ccns3)CC2)ccc2c1COC2=O` [Example 46, 4-amino-1-[(2R)-2-hydroxy-2-(4-methyl-1-oxo-1,3-dihydro-2-benzofuran-5-yl)ethyl]-N-(isothiazol-5-yl)piperidine-4-carboxamide hydrochloride], for which the IC50 amounted to 50 nM.
Next, `Cc1c([C@@H](O)CN2CCC(C(=O)Nc3snc4ccncc34)CC2)ccc2c1COC2=O` [Example 30, (R)-1-(2-hydroxy-2-(4-methyl-1-oxo-1,3-dihydroisobenzofuran-5-yl)ethyl)-N-(isothiazolo[4,3-c]pyridin-3-yl)piperidine-4-carboxamide]: 100 nM; `Cc1cc(NC(=O)C2(F)CCN(C[C@H](O)c3ccc4c(c3C)COC4=O)CC2)sn1` [Example 48, (R)-4-fluoro-1-(2-hydroxy-2-(4-methyl-1-oxo-1,3-dihydroisobenzofuran-5-yl)ethyl)-N-(3-methylisothiazol-5-yl)piperidine-4-carboxamide]: 40 nM; `Cc1c([C@@H](O)CN2CC3C(C2)C3C(=O)Nc2ccns2)ccc2c1COC2=O` (stereo partly drawn) [Example 54, 3-[(2R)-2-hydroxy-2-(4-methyl-1-oxo-1,3-dihydro-2-benzofuran-5-yl)ethyl]-N-(isothiazol-5-yl)-3-azabicyclo[3.1.0]hexane-6-carboxamide]: 160 nM.
Regarding `Cc1c([C@@H](O)CN2CCC(O)(C(=O)Nc3ccns3)CC2)ccc2c1COC2=O` [Example 38, (R)-4-hydroxy-1-(2-hydroxy-2-(4-methyl-1-oxo-1,3-dihydroisobenzofuran-5-yl)ethyl)-N-(isothiazol-5-yl)piperidine-4-carboxamide], the IC50 was 110 nM.
For `Cc1c([C@@H](O)CN2CCC(C(=O)Nc3cnsc3)CC2)ccc2c1COC2=O` [Example 28, (R)-1-(2-hydroxy-2-(4-methyl-1-oxo-1,3-dihydroisobenzofuran-5-yl)ethyl)-N-(isothiazol-4-yl)piperidine-4-carboxamide], the IC50 was 100 nM.
Take `O=C1OCc2cc(CCN3CCC(C(=O)Nc4ccc5[nH]nnc5c4)CC3)ccc21` [Example 19, N-(1H-benzo[d][1,2,3]triazol-5-yl)-1-(2-(1-oxo-1,3-dihydroisobenzofuran-5-yl)ethyl)piperidine-4-carboxamide]: the IC50 is 440 nM.
For `Cc1c([C@@H](O)CN2CCC(C(=O)Nc3nc(C#N)cs3)CC2)ccc2c1COC2=O` [Example 29, (R)-N-(4-cyanothiazol-2-yl)-1-(2-hydroxy-2-(4-methyl-1-oxo-1,3-dihydroisobenzofuran-5-yl)ethyl)piperidine-4-carboxamide], the IC50 stood at 240 nM.
Turning to `Cc1c([C@@H](O)CN2CC3C(C2)C3C(=O)N(C)c2ccns2)ccc2c1COC2=O` (stereo partly drawn) [Example 61, 3-((R)-2-hydroxy-2-(4-methyl-1-oxo-1,3-dihydroisobenzofuran-5-yl)ethyl)-N-(isothiazol-5-yl)-N-methyl-3-azabicyclo[3.1.0]hexane-6-carboxamide], the IC50 worked out at 140 nM.
For `O=C1OCc2cc(CCN3CCC(C(=O)Nc4ccc5sncc5c4)CC3)ccc21` [Example 20, N-(benzo[d]isothiazol-5-yl)-1-(2-(1-oxo-1,3-dihydroisobenzofuran-5-yl)ethyl)piperidine-4-carboxamide], the IC50 amounted to 470 nM.
With `Cc1c(C(O)CN2CCC(O)(C(=O)Nc3ccc(C#N)cn3)CC2)ccc2c1COC2=O` (stereo in doubt) [Example 37, (R)-N-(5-cyanopyridin-2-yl)-4-hydroxy-1-(2-hydroxy-2-(4-methyl-1-oxo-1,3-dihydroisobenzofuran-5-yl)ethyl)piperidine-4-carboxamide], the IC50 was determined as 470 nM.
Regarding `Cc1cc(C#N)ccc1NC(=O)C1CCN(CCc2ccc3c(c2C)COC3=O)CC1` [Example 8, N-(4-cyano-2-methylphenyl)-1-(2-(4-methyl-1-oxo-1,3-dihydroisobenzofuran-5-yl)ethyl)piperidine-4-carboxamide], the IC50 came out at 100 nM.
Next, `Cc1c([C@@H](O)CN2CCC(C(=O)Nc3ccns3)CC2)ccc2c1COC2=O` [Example 22, 1-[(2R)-2-hydroxy-2-(4-methyl-1-oxo-1,3-dihydro-2-benzofuran-5-yl)ethyl]-N-(isothiazol-5-yl)piperidine-4-carboxamide]: 40 nM; `Cc1c([C@@H](O)CN2CCC(C(=O)Nc3cncc(F)c3)CC2)ccc2c1COC2=O` [Example 34, (R)-N-(5-fluoropyridin-3-yl)-1-(2-hydroxy-2-(4-methyl-1-oxo-1,3-dihydroisobenzofuran-5-yl)ethyl)piperidine-4-carboxamide]: 340 nM; `Cc1c([C@@H](O)CN2CCC(F)(C(=O)Nc3ccns3)CC2)ccc2c1COC2=O` [Example 47, 4-fluoro-1-[(2R)-2-hydroxy-2-(4-methyl-1-oxo-1,3-dihydro-2-benzofuran-5-yl)ethyl]-N-(isothiazol-5-yl)piperidine-4-carboxamide]: 60 nM.
Next, `Cc1c([C@@H](O)CN2CC3C(C2)C3C(=O)Nc2ccc(C#N)cn2)ccc2c1COC2=O` (stereo partly drawn) [Example 59, N-(5-cyanopyridin-2-yl)-3-((R)-2-hydroxy-2-(4-methyl-1-oxo-1,3-dihydroisobenzofuran-5-yl)ethyl)-3-azabicyclo[3.1.0]hexane-6-carboxamide]: 400 nM; `O=C1OCc2cc(CCN3CCC(C(=O)Nc4ccc5cn[nH]c5c4)CC3)ccc21` [Example 18, N-(1H-indazol-6-yl)-1-(2-(1-oxo-1,3-dihydroisobenzofuran-5-yl)ethyl)piperidine-4-carboxamide]: 510 nM.
